Assay results reported in PMC5823474, “A natural agonist of mosquito TRPA1 from the medicinal plant Cinnamosma fragrans that is toxic, antifeedant, and repellent to the yellow fever mosquito Aedes aegypti” (PLoS Neglected Tropical Diseases, 2018).

Target: T1, AgTRPA1 (Transient Receptor Potential A1) (Anopheles gambiae, UniProt B3G3I7)
T1 construct: AgTRPA1 cRNA expressed in Xenopus laevis oocytes
T1 sequence (B3G3I7 1-1248): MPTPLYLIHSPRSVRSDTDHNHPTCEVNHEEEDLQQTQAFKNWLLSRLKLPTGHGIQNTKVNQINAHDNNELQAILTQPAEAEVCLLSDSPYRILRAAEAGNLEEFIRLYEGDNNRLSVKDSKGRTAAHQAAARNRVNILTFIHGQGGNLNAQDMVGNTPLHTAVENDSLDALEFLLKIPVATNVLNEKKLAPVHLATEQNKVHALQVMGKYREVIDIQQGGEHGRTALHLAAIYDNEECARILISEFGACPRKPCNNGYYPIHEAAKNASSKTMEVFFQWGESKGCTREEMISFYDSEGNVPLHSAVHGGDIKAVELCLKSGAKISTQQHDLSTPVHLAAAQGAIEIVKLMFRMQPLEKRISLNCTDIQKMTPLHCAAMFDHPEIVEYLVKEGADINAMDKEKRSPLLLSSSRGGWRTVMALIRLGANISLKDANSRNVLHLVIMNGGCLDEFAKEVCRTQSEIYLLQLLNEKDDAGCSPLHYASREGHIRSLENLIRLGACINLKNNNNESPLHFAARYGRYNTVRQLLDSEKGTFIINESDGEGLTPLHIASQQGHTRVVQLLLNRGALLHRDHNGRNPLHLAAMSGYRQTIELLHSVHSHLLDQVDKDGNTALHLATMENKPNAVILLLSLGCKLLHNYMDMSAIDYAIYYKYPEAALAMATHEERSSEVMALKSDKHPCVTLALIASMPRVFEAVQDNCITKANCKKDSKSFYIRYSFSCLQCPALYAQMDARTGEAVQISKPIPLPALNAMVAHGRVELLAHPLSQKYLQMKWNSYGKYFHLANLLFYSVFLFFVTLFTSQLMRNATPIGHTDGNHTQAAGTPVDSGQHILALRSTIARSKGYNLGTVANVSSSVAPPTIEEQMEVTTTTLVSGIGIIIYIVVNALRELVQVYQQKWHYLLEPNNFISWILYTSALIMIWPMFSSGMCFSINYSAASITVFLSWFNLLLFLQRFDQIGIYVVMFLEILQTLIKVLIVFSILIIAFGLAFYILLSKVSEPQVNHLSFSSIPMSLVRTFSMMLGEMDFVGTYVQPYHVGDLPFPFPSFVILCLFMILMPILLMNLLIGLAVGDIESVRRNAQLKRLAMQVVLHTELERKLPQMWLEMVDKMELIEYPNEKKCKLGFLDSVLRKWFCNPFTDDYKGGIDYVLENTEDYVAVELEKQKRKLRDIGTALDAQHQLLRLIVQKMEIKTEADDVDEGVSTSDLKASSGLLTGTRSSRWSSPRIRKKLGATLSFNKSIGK
Test: two-electrode voltage clamp in Xenopus oocytes, weaker agonist at […]; no response in H2O-injected oocytes
Assay type: cell-based

CC(=O)O[C@@H]1C=C(C2O[C@@H]3O[C@@H](O)C4=C[C@@H](OC(C)=O)[C@H]5C(C)(C)CCC[C@]5(C)[C@]43O2)[C@](O)(C=O)[C@@]2(C)CCCC(C)(C)[C@H]12 (stereo partly shown) [CFRAG, cinnafragrin A]
two-electrode voltage clamp in Xenopus oocytes, weaker agonist at 10 μM; no resp: CFRAG produced a similar response, but the peak Im elicited by CDIAL
